Measurements published in patent publication US11584747B2, “Substituted pyridopyrimidinonyl compounds useful as T cell activators” (BRISTOL-MYERS SQUIBB COMPANY, priority 2019, dated 2023).
Like-named read-outs stand apart in the source and are kept apart here.

Tests used:
human DGKα = human DGKα (Homo sapiens (Human), UniProt P23743); test: DGKα ADPGLO assay (detergent/lipid micelle substrate); assay type: biochemical
Experimental: DGK Alpha ADPGLO (Truncated) IC50 (uM)
The detergent/lipid micelle was prepared by combining 15 g phosphatidylserine (Avanti 840035P) and 1 g diacylglycerol (8008110) and dissolving into 150 mL chloroform in a 2 L round bottom flask. Chloroform was removed under high vacuum by rotary evaporation. […] The lipid/detergent solution was split into 5 mL aliquots and stored at −80° C.

human DGKζ = human DGKζ (Homo sapiens (Human), UniProt Q13574); test: DGKζ LIPGLO assay (extruded liposome substrate, ADP-Glo luminescence); assay type: biochemical
human DGKζ, sequence (Q13574 other isoform, or with tags, fused parts or gaps): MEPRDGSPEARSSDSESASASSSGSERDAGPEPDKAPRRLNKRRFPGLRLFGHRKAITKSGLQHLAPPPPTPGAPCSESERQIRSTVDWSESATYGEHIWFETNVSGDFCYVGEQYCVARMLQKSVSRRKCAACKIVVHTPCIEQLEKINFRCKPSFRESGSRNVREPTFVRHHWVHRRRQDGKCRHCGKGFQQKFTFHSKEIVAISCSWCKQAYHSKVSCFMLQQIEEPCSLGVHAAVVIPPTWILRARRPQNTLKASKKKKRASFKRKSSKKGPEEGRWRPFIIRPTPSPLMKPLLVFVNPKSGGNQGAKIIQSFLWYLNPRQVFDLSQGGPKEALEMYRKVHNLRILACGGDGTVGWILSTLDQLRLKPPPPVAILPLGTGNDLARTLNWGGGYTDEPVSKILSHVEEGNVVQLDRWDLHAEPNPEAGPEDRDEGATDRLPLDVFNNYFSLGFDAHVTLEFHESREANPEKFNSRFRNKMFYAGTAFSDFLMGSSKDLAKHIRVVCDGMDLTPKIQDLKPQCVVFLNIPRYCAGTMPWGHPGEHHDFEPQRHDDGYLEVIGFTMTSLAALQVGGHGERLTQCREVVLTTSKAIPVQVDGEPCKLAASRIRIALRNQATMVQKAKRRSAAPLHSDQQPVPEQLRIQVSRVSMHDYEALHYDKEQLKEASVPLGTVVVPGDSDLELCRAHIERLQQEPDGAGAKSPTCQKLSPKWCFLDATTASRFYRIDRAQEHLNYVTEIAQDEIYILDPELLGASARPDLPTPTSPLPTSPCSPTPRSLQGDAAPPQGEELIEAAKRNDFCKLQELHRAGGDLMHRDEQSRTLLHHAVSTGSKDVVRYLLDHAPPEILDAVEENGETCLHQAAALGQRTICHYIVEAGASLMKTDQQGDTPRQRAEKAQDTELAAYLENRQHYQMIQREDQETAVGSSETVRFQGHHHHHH

[1] = test system: human venous whole blood (IFN-γ); test: Human whole blood IFN-γ assay; assay type: cell-based
Experimental: Human venous whole blood (22.5 μL per well), obtained from healthy donors, was pre-treated with compounds for one hour at 37° C. in a humidified 95% air/5% CO2 incubator. The blood was stimulated with 2.5 μL anti-human CD3 and anti-CD28 mAb at a final concentration of 1 μg/mL each for 24 hours at 37° C. IFN-γ in the supernatants was measured using AlphLISA kit (Cat #AL217).

[2] = truncated DGK alpha, read-out: DGK alpha ADPGLO (Truncated) IC50
[3] = liposome assay, read-out: DGK zeta LIPGLO IC50
[4] = ADPGLO assay, read-out: DGK alpha ADPGLO IC50
[5] = liposome (LIPGLO) assay, read-out: DGK zeta (liposome assay) IC50
[6] = whole blood, normalized to 3 μM reference compound as 100% activation, read-out: IFN-γ Whole Blood Normalized EC50
[7] = Homo sapiens, whole blood, normalized to 3 μM reference compound as 100% activation, read-out: IFN-γ Whole Blood Normalized EC50
[8] = Homo sapiens, 24 h, human whole blood, anti-CD3 plus anti-CD28 stimulation, 24 hours, read-out: IFN-γ Whole Blood EC50

human DGKα, sequence (P23743 whole entry, looked up, the tested form may be a part): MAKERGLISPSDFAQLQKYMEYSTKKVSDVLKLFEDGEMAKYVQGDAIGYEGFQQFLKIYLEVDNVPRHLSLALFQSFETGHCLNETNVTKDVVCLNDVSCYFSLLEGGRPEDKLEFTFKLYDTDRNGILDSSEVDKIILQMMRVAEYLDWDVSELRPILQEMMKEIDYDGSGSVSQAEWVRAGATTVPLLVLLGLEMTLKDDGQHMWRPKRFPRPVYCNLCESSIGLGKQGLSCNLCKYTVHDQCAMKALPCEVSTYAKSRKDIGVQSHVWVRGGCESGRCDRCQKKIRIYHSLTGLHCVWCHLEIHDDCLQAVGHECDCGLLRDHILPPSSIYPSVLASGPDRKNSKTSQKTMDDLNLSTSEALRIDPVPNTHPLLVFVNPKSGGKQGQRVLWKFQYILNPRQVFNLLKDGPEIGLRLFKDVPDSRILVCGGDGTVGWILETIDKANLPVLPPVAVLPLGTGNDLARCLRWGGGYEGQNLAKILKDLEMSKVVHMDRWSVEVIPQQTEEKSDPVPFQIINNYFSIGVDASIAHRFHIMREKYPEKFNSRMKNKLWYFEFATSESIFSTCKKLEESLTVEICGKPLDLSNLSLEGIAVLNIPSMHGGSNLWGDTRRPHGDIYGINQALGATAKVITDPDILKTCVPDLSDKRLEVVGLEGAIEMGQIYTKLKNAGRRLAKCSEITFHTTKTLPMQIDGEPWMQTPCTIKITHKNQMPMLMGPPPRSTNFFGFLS

SMILES	IC50 (human DGKζ; [3])	IC50 (human DGKα; [4])	IC50 (human DGKζ; [5])	other results
CC[C@H]1CN(C(C)c2ccc(CN3CCC(O)CC3)cc2)[C@H](CC)CN1c1nc(=O)n(C)c2ccc(C#N)nc12 (stereo partly drawn) [Example 286, 4-((2S,5R)-2,5-diethyl-4-(1-(4-((4-hydroxypiperidin-1-yl)methyl)phenyl)ethyl)piperazin-1-yl)-1-methyl-2-oxo-1,2-dihydropyrido[3,2-d]pyrimidine-6-carbonitrile]	125 µM			IC50 (human DGKα; [2]): 36.2 µM
CCC(C1CC(F)(F)C1)N1C[C@H](C)N(c2nc(=O)n(C)c3ccc(C#N)nc23)C[C@H]1C (stereo partly drawn) [Example 456, 4-((2S,5R)-4-(1-(3,3-difluorocyclobutyl)propyl)-2,5-dimethylpiperazin-1-yl)-1-methyl-2-oxo-1,2-dihydropyrido[3,2-d]pyrimidine-6-carbonitrile]		10.2 µM	12.1 µM	
COC[C@H]1CN(C(C)c2ccc(C(F)(F)F)cc2)[C@H](C)CN1c1nc(=O)n(C)c2ccc(C#N)nc12 (single isomer, unassigned) [Example 410]		0.22 µM	2.37 µM	
CCC(c1ccc(C(F)(F)F)cc1)N1C[C@H](C)N(c2nc(=O)n(C)c3ccc(C#N)nc23)C[C@H]1COC (single isomer, unassigned) [Example 398]		0.09 µM	0.064 µM	
CCOc1ccc(C(CC)N2C[C@H](C)N(c3nc(=O)n(C)c4ccc(C#N)nc34)C[C@H]2CC)cc1 (stereo partly drawn) [Example 307, 4-((2S,5R)-4-(1-(4-ethoxyphenyl)propyl)-5-ethyl-2-methylpiperazin-1-yl)-1-methyl-2-oxo-1,2-dihydropyrido[3,2-d]pyrimidine-6-carbonitrile]		0.14 µM	0.77 µM	
CCC(c1ccc(C2CC2)cc1F)N1C[C@H](C)N(c2nc(=O)n(C)c3ccc(C#N)nc23)C[C@H]1CC (stereo partly drawn) [Example 303, 4-((2S,5R)-4-(1-(4-cyclopropyl-2-fluorophenyl)propyl)-5-ethyl-2-methylpiperazin-1-yl)-1-methyl-2-oxo-1,2-dihydropyrido[3,2-d]pyrimidine-6-carbonitrile]	5.07 µM			IC50 (human DGKα; [2]): 1.77 µM
CC[C@@H]1CN(c2nc(=O)n(C)c3ccc(C#N)nc23)[C@@H](C)CN1C(c1nnc(C2CC2)o1)C(C)C (single isomer, unassigned) [Example 367]		0.12 µM	0.85 µM	
CC[C@H]1CN(C(C)c2ccc3oc(C4CC4)nc3c2)[C@H](CC)CN1c1nc(=O)n(C)c2ccc(C#N)nc12 (stereo partly drawn) [Example 253, 4-((2S,5R)-4-(1-(2-cyclopropylbenzo[d]oxazol-5-yl)ethyl)-2,5-diethylpiperazin-1-yl)-1-methyl-2-oxo-1,2-dihydropyrido[3,2-d]pyrimidine-6-carbonitrile]	0.097 µM			IC50 (human DGKα; [2]): 3.8 µM
CC[C@H]1CN(C(C)c2ccc(C(F)(F)F)cc2)[C@H](CC)CN1c1nc(=O)n(C)c2ccc(COC)nc12 (single isomer, unassigned) [Example 425]		83.3 µM	12.5 µM	
CC[C@H]1CN(C(C)c2ccc(CN3CCC(F)(F)CC3)cc2)[C@H](CC)CN1c1nc(=O)n(C)c2ccc(C#N)nc12 (stereo partly drawn) [Example 277, 4-((2S,5R)-4-(1-(4-((4,4-difluoropiperidin-1-yl)methyl)phenyl)ethyl)-2,5-diethylpiperazin-1-yl)-1-methyl-2-oxo-1,2-dihydropyrido[3,2-d]pyrimidine-6-carbonitrile]	0.018 µM			IC50 (human DGKα; [2]): 0.16 µM
CCCC(c1ccc(C(F)(F)F)cc1)N1C[C@H](CC)N(c2nc(=O)n(C)c3ccc(C#N)nc23)C[C@H]1CC (stereo partly drawn) [Example 244, 4-((2S,5R)-2,5-Diethyl-4-(1-(4-(trifluoromethyl)phenyl)butyl)piperazin-1-yl)-1-methyl-2-oxo-1,2-dihydropyrido[3,2-d]pyrimidine-6-carbonitrile]				EC50 [1, 6]: 13.3 µM
CC[C@@H]1CN(c2nc(=O)n(C)c3ccc(C#N)nc23)[C@@H](C)CN1C(c1ccc(F)cc1)c1cc(C2CC2)on1 (single isomer, unassigned) [Example 102]	0.094 µM			
CC[C@@H]1CN(c2nc(=O)n(C)c3ccc(C#N)nc23)[C@@H](C)CN1Cc1ccc2c(c1)OC(F)(F)O2 [Example 55, 4-((2S,5R)-((2,2-difluorobenzo[d][1,3]dioxol-5-yl)methyl)-5-ethyl-2-methylpiperazin-1-yl)-1-methyl-2-oxo-1,2-dihydropyrido[3,2-d]pyrimidine-6-carbonitrile]				EC50 [1, 7]: 0.79 µM
CCC[C@@H]1CN(c2nc(=O)n(C)c3ccc(C#N)nc23)[C@@H](C)CN1C(C)c1ccc(C(F)(F)F)cc1 (single isomer, unassigned) [Example 396]		0.92 µM		
CCOc1ccc2c(n1)c(N1C[C@@H](CC)N(C(C)c3ccc(C(F)(F)F)cc3)C[C@@H]1CC)nc(=O)n2C (stereo partly drawn) [Example 429, 4-((2S,5R)-2,5-diethyl-4-(1-(4-(trifluoromethyl)phenyl)ethyl)piperazin-1-yl)-6-ethoxy-1-methylpyrido[3,2-d]pyrimidin-2(1H)-one]			99.5 µM	EC50 [1, 8]: 20 µM
CCOC(=O)[C@H]1C[C@@H]1Oc1ccc(C(C)N2C[C@H](CC)N(c3nc(=O)n(C)c4ccc(C#N)nc34)C[C@H]2CC)cc1 (stereo partly drawn) [Example 260, ethyl (1S,2S)-2-(4-(1-((2R,5S)-4-(6-cyano-1-methyl-2-oxo-1,2-dihydropyrido[3,2-d]pyrimidin-4-yl)-2,5-diethylpiperazin-1-yl)ethyl)phenoxy)cyclopropane-1-carboxylate]	3.03 µM			
CC[C@H]1CN(C(C)c2ccc(OC(F)(F)F)cc2F)[C@H](CC)CN1c1nc(=O)n(C)c2ccc(C#N)nc12 (single isomer, unassigned) [Example 39]	0.77 µM			EC50 [1, 6]: 2.73 µM
CC[C@H]1CN(C(C)c2ccc(N3CCCC3=O)cc2)[C@H](CC)CN1c1nc(=O)n(C)c2ccc(C#N)nc12 (stereo partly drawn) [Example 231, 4-((2S,5R)-2,5-diethyl-4-(1-(4-(2-oxopyrrolidin-1-yl)phenyl)ethyl)piperazin-1-yl)-1-methyl-2-oxo-1,2-dihydropyrido[3,2-d]pyrimidine-6-carbonitrile]				EC50 [1, 6]: 9.74 µM
C[C@@H]1CN(c2nc(=O)n(C)c3ccc(C#N)nc23)[C@@H](C)CN1C(c1ccc(F)cc1)c1ccc(C(F)(F)F)cn1 (stereo in doubt) [Example 126]				EC50 [1, 7]: 0.68 µM
CC[C@H]1CN(C(C)c2ccc(C(F)(F)F)cc2)[C@H](CC)CN1c1nc(=O)n(C)c2ccc(OC)nc12 (single isomer, unassigned) [Example 428]			125 µM	EC50 [1, 8]: 20 µM
CCC(c1ccc(C(F)(F)F)cc1)N1C[C@H](CC)N(c2nc(=O)n(C)c3ccc(C#N)nc23)C[C@H]1CC (single isomer, unassigned) [Example 5]				IC50 (human DGKα; [2]): 0.064 µM
CC[C@H]1CN(C(C)c2ccc(C(F)(F)F)cc2)[C@H](CC)CN1c1nc(=O)n(C)c2ccc(OCCN(C)C)nc12 (stereo partly drawn) [Example 432, 4-((2S,5R)-2,5-diethyl-4-(1-(4-(trifluoromethyl)phenyl)ethyl)piperazin-1-yl)-6-(2-(dimethylamino)ethoxy)-1-methylpyrido[3,2-d]pyrimidin-2(1H)-one]			41.7 µM	EC50 ([1]; human whole blood, anti-CD3 plus anti-CD28 stimulation, 24 hours, read-out: IFN-γ Whole Blood EC50): 20 µM
CC[C@@H]1CN(c2nc(=O)n(C)c3ccc(C#N)nc23)[C@@H](C)CN1C(C)c1ccc(C(F)(F)F)cc1 (single isomer, unassigned) [Example 7]				IC50 (human DGKα; [2]): 0.18 µM
